# Experimental data as given in patent publication US20250066388A1, “1,3,4,7-TETRAHYDRO-2H-PYRROLO[3',2':5,6]PYRIDO[2,3-B][1,4]OXAZEPINE BCL-2 INHIBITORS” (AbbVie Inc., priority 2022, published 2025).
# Tests used:
# [1] = tested on: Molt-4 cells; assay: Cell viability counter screen (CellTiter-Glo) in Molt-4 cells; type: cell-based; settings: 24 hours, 10% Human Serum
# Procedure: The acute lymphoblastic leukemia (ALL) human cell line RS4;11 (ATCC, Manassas VA) was used as the primary human cell line to assess the cellular activity of compound of the present Examples in vitro and their efficacy in vivo. […] The acute lymphoblastic leukemia cell line Molt-4, which is derived from immature T-lymphoid cells (T-ALL), was used as a counter screen assay.
# 3000 Cells (0.1×10^6/mL) were seeded in each well of 384-well plate and were treated for 24 hours in a humidified chamber with 5% CO2. Cell viability was determined by CellTiter-Glo as described by the manufacturer's instructions (Promega Corporation, Madison, WI, USA).
# [2] = target: Bcl-2 protein (Homo sapiens (Human), UniProt P10415); assay: TR-FRET binding assay, Bcl-2; settings: F-Bak peptide probe, GST-Bcl-2
# Procedure: (§1) Determination of the utility of compounds having Formula (I) or Formula (II) as binders to and inhibitors of anti-apoptotic Bcl-2 proteins was performed using the Time Resolved-Fluorescence Resonance Energy Transfer (TR-FRET) Assay. Tb-anti-GST antibody was purchased from Invitrogen (Catalog No. PV4216).
# A Bcl-2 human encoding sequence was cloned into a pET41A vector (Novagen). The protein was expressed with E. coli. BL21(DE3)-T1R strain in OETB autoinduction medium at 30° C. for 25 hours. The cell pellets were resuspended in lysis buffer (50 mM Tris, 140 mM NaCl, 1 mM DTT, 10% Glycerol, 2 mM MgCl2, pH 7.3) and lysed with Microfluidizer. The Bcl-2 protein in clarified cell-lysate was purified with affinity chromatography (GST and Ni-NTA). The eluate was loaded onto a Superdex 75 column and further purified with a Q Sepharose column. The protein was purified on a phenyl hydrophobic interaction column and dialyzed in the storage buffer (50 mM Tris, 50 mM NaCl, 2 mM DTT, pH 7.5) and stored at −80° C.
# (§2) […] of a protein (Bcl-2 or Bcl-xL)/probe/antibody mixture pre-equilibrated for one hour in assay buffer was added to each well at final concentrations listed in Table 6 below.
# (§3) The samples were then mixed on a shaker for 1 minute and equilibrated for an additional 3 hours at room temperature. For each assay plate, a probe/antibody and protein/antibody/probe mixture were included as a negative and a positive control, respectively. Fluorescence was measured on the Envision (Perkin Elmer) using a 340/35 nm excitation filter and 520/525 (F-Bak) and 495/510 nm (Tb-labeled anti-GST antibody) emission filters. Inhibition constants (Ki) were determined using Wang's equation (Wang FEBS Lett. 1995, 360, 111-114). The TR-FRET assay can be performed in the presence of varying concentrations of human serum (HS) to determine apparent half maximal inhibitory concentration (IC50) after HS protein binding.
# (§4) Inhibition constants were determined using Wang's equation (Wang FEBS Lett. 1995, 360:111-4).
# [3] = target: Bcl-xL protein (Homo sapiens (Human), UniProt Q07817); assay: TR-FRET binding assay, Bcl-xL; settings: F-Bak peptide probe
# Procedure: as §1
# A human Bcl-xL encoding sequence was cloned into a pET41A vector. The protein was expressed with E. coli. BL21(DE3)-T1R strain in OETB autoinduction medium at 30° C. for 25 hours. The cell pellets were resuspended in lysis buffer (50 mM Tris, 140 mM NaCl, 1 mM DTT, 10% Glycerol, 0.1% Triton X-100, pH 7.5) and lysed with Microfluidizer. The Bcl-xL protein in clarified cell-lysate was purified with GST affinity chromatography. The eluate was dialyzed in the storage buffer (1×PBS, 10% Glycerol, 2 mM DTT, 1 mM Sodium Azide, pH 7.4) and stored at −80° C.
# as §2, §3, §4
# Chain of Bcl-2 protein (P10415 other isoform, or with tags, fused parts or gaps): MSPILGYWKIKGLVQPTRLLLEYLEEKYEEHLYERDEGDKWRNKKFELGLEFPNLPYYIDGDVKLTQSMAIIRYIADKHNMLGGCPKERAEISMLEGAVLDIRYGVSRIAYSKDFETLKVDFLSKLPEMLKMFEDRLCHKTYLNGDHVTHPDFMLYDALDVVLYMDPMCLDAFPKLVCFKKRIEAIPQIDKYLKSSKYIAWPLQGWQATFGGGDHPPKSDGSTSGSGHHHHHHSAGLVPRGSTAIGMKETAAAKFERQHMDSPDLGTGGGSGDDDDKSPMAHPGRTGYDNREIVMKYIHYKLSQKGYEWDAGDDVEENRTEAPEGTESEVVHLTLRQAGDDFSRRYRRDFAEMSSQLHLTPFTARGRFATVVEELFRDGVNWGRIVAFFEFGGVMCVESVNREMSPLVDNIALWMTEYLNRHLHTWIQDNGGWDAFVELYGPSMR
# Chain of Bcl-xL protein (Q07817 other isoform, or with tags, fused parts or gaps): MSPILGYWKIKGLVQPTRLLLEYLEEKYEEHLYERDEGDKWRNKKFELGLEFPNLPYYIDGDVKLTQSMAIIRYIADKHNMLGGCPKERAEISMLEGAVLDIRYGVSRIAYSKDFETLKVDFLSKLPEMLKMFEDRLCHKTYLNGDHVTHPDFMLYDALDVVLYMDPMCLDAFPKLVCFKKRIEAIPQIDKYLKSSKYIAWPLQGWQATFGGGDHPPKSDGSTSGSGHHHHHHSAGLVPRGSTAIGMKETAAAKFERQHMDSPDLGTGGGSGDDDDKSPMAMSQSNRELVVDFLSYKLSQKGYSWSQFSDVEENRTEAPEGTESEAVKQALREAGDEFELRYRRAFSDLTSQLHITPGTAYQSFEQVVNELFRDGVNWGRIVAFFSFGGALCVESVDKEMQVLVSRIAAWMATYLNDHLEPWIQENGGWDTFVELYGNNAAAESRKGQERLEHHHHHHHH
Structure (SMILES),EC50 [1],Ki [2],Ki [3]
"CC1(C)CC(c2ccc(Cl)cc2)=C2CN3CCN(c4ccc(C(=O)NS(=O)(=O)c5cnc(OC[C@H]6CC[C@@](C)(O)CC6)c(Cl)c5)c(N5CCCOc6nc7[nH]ccc7cc65)c4)C[C@H]3COCCCO[C@@H]2C1 [Example 50, N-((5-chloro-6-(((1s,4s)-4-hydroxy-4-methylcyclohexyl)methoxy)pyridin-3-yl)sulfonyl)-4-((4aS,10aR)-14-(4-chlorophenyl)-12,12-dimethyl-1,2,4a,5,8,9,10a,11,13,15-decahydro-7H,12H-benzo[f]pyrazino[2,1-c][1,8]dioxa[4]azacycloundecin-3(4H)-yl)-2-(3,4-dihydro-2H-pyrrolo[3′,2′:5,6]pyrido[2,3-b][1,4]oxazepin-1(7H)-yl)benzamide]",> 10000 nM,–,–
"C[C@H]1CCC(CNc2ccc(S(=O)(=O)NC(=O)c3ccc(N4CCN5CC6=C(c7ccc(Cl)cc7)CC(C)(C)C[C@H]6OCCCOCC5C4)cc3N3CCCOc4nc5[nH]ccc5cc43)cc2[N+](=O)[O-])OC1 (stereo partly drawn) [Example 23, 4-((4aS,10aR)-14-(4-chlorophenyl)-12,12-dimethyl-1,2,4a,5,8,9,10a,11,13,15-decahydro-7H,12H-benzo[f]pyrazino[2,1-c][1,8]dioxa[4]azacycloundecin-3(4H)-yl)-2-(3,4-dihydro-2H-pyrrolo[3′,2′:5,6]pyrido[2,3-b][1,4]oxazepin-1(7H)-yl)-N-((4-((((2R,5S)-5-methyltetrahydro-2H-pyran-2-yl)methyl)amino)-3-nitrophenyl)sulfonyl)benzamide]",> 10000 nM,0.634 nM,29.7 nM
"CO[C@H]1CC[C@H](CNc2ccc(S(=O)(=O)NC(=O)c3ccc(N4CCN5CC6=C(c7ccc(Cl)cc7)CC(C)(C)C[C@H]6OCCCOC[C@@H]5C4)cc3N3CCCOc4nc5[nH]ccc5cc43)cc2[N+](=O)[O-])CC1 [Example 5, 4-((4aS,10aR)-14-(4-chlorophenyl)-12,12-dimethyl-1,2,4a,5,8,9,10a,11,13,15-decahydro-7H,12H-benzo[f]pyrazino[2,1-c][1,8]dioxa[4]azacycloundecin-3(4H)-yl)-2-(3,4-dihydro-2H-pyrrolo[3′,2′:5,6]pyrido[2,3-b][1,4]oxazepin-1(7H)-yl)-N-((4-((((1r,4r)-4-methoxycyclohexyl)methyl)amino)-3-nitrophenyl)sulfonyl)benzamide]",–,0.149 nM,20 nM
"COC1(CNc2ccc(S(=O)(=O)NC(=O)c3ccc(N4CCN5CC6=C(c7ccc(Cl)cc7)CC(C)(C)C[C@H]6OCCCOC[C@@H]5C4)cc3N3CCCOc4nc5[nH]ccc5cc43)cc2[N+](=O)[O-])CCOCC1 [Example 26, 4-((4aS,10aR)-14-(4-chlorophenyl)-12,12-dimethyl-1,2,4a,5,8,9,10a,11,13,15-decahydro-7H,12H-benzo[f]pyrazino[2,1-c][1,8]dioxa[4]azacycloundecin-3(4H)-yl)-2-(3,4-dihydro-2H-pyrrolo[3′,2′:5,6]pyrido[2,3-b][1,4]oxazepin-1(7H)-yl)-N-((4-(((4-methoxytetrahydro-2H-pyran-4-yl)methyl)amino)-3-nitrophenyl)sulfonyl)benzamide]",> 10000 nM,2.09 nM,40.3 nM
"CC1(C)CC(c2ccc(Cl)cc2)=C2CN3CCN(c4ccc(C(=O)NS(=O)(=O)c5ccc(OC[C@H]6CC[C@](C)(O)CC6)c(Cl)c5)c(N5CCCOc6nc7[nH]ccc7cc65)c4)C[C@H]3COCCCO[C@@H]2C1 [Example 43, N-((3-chloro-4-(((1r,4r)-4-hydroxy-4-methylcyclohexyl)methoxy)phenyl)sulfonyl)-4-((4aS,10aR)-14-(4-chlorophenyl)-12,12-dimethyl-1,2,4a,5,8,9,10a,11,13,15-decahydro-7H,12H-benzo[f]pyrazino[2,1-c][1,8]dioxa[4]azacycloundecin-3(4H)-yl)-2-(3,4-dihydro-2H-pyrrolo[3′,2′:5,6]pyrido[2,3-b][1,4]oxazepin-1(7H)-yl)benzamide]",> 10000 nM,–,–
"CC1(C)CC(c2ccc(Cl)cc2)=C2CN3CCN(c4ccc(C(=O)NS(=O)(=O)c5cnc(OCC6(F)CCN(C7COC7)CC6)c(Cl)c5)c(N5CCCOc6nc7[nH]ccc7cc65)c4)C[C@H]3COCCCO[C@@H]2C1 [Example 4, N-((5-chloro-6-((4-fluoro-1-(oxetan-3-yl)piperidin-4-yl)methoxy)pyridin-3-yl)sulfonyl)-4-((4aS,10aR)-14-(4-chlorophenyl)-12,12-dimethyl-1,2,4a,5,8,9,10a,11,13,15-decahydro-7H,12H-benzo[f]pyrazino[2,1-c][1,8]dioxa[4]azacycloundecin-3(4H)-yl)-2-(3,4-dihydro-2H-pyrrolo[3′,2′:5,6]pyrido[2,3-b][1,4]oxazepin-1(7H)-yl)benzamide]",–,0.28 nM,18.8 nM
"CO[C@H]1CC[C@H](CNc2ccc(S(=O)(=O)NC(=O)c3ccc(N4CCN5CC6=C(c7ccc(Cl)cc7)CC(C)(C)C[C@H]6OCCCOC[C@@H]5C4)cc3N3CCCOc4nc5[nH]ccc5cc43)cc2Cl)OC1 [Example 34, N-((3-chloro-4-((((2R,5S)-5-methoxytetrahydro-2H-pyran-2-yl)methyl)amino)phenyl)sulfonyl)-4-((4aS,10aR)-14-(4-chlorophenyl)-12,12-dimethyl-1,2,4a,5,8,9,10a,11,13,15-decahydro-7H,12H-benzo[f]pyrazino[2,1-c][1,8]dioxa[4]azacycloundecin-3(4H)-yl)-2-(3,4-dihydro-2H-pyrrolo[3′,2′:5,6]pyrido[2,3-b][1,4]oxazepin-1(7H)-yl)benzamide]",> 10000 nM,0.667 nM,446 nM
"CC1(C)CC(c2ccc(Cl)cc2)=C2CN3CCN(c4ccc(C(=O)NS(=O)(=O)c5cnc(OC[C@]6(F)CC[C@@H](N7CCOCC7)CC6)c(Cl)c5)c(N5CCCOc6nc7[nH]ccc7cc65)c4)C[C@H]3COCCCO[C@@H]2C1 [Example 10, N-((5-chloro-6-(((1s,4s)-1-fluoro-4-morpholinocyclohexyl)methoxy)pyridin-3-yl)sulfonyl)-4-((4aS,10aR)-14-(4-chlorophenyl)-12,12-dimethyl-1,2,4a,5,8,9,10a,11,13,15-decahydro-7H,12H-benzo[f]pyrazino[2,1-c][1,8]dioxa[4]azacycloundecin-3(4H)-yl)-2-(3,4-dihydro-2H-pyrrolo[3′,2′:5,6]pyrido[2,3-b][1,4]oxazepin-1(7H)-yl)benzamide]",–,0.66 nM,5.91 nM
"CC1(C)CC(c2ccc(Cl)cc2)=C2CN3CCN(c4ccc(C(=O)NS(=O)(=O)c5cnc(OC[C@H]6CC[C@](C)(O)CC6)c(Cl)c5)c(N5CCCOc6nc7[nH]ccc7cc65)c4)C[C@H]3COCCCO[C@@H]2C1 [Example 42, N-((5-chloro-6-(((1r,4r)-4-hydroxy-4-methylcyclohexyl)methoxy)pyridin-3-yl)sulfonyl)-4-((4aS,10aR)-14-(4-chlorophenyl)-12,12-dimethyl-1,2,4a,5,8,9,10a,11,13,15-decahydro-7H,12H-benzo[f]pyrazino[2,1-c][1,8]dioxa[4]azacycloundecin-3(4H)-yl)-2-(3,4-dihydro-2H-pyrrolo[3′,2′:5,6]pyrido[2,3-b][1,4]oxazepin-1(7H)-yl)benzamide]",> 10000 nM,–,–
"CO[C@H]1CC[C@H](CNc2ccc(S(=O)(=O)NC(=O)c3ccc(N4CCN5CC6=C(c7ccc(Cl)cc7)CC(C)(C)C[C@H]6OCCCOC[C@@H]5C4)cc3N3CCCOc4nc5[nH]ccc5cc43)cc2[N+](=O)[O-])OC1 [Example 13, 4-((4aS,10aR)-14-(4-chlorophenyl)-12,12-dimethyl-1,2,4a,5,8,9,10a,11,13,15-decahydro-7H,12H-benzo[f]pyrazino[2,1-c][1,8]dioxa[4]azacycloundecin-3(4H)-yl)-2-(3,4-dihydro-2H-pyrrolo[3′,2′:5,6]pyrido[2,3-b][1,4]oxazepin-1(7H)-yl)-N-((4-((((2R,5S)-5-methoxytetrahydro-2H-pyran-2-yl)methyl)amino)-3-nitrophenyl)sulfonyl)benzamide]",–,0.35 nM,6.8 nM
